From patent US20120149700A1, “2-CYANOPHENYL FUSED HETEROCYCLIC COMPOUNDS, AND COMPOSTIONS AND USES THEREOF” (priority 2007, published 2012)

Legend:
[1] = biological target: T1, P2X3 (Homo sapiens, UniProt P56373); assay: Calcium uptake assay (P2X antagonist assay, inhibition of agonist-induced calcium influx), P2X3; type: cell-based; conditions: inhibition of agonist-induced calcium influx in cells expressing the receptor
T1 construct: expressed in transfected cells; host or cells: e.g. HEK293 or 1321N1
T1 sequence (P56373 1-397): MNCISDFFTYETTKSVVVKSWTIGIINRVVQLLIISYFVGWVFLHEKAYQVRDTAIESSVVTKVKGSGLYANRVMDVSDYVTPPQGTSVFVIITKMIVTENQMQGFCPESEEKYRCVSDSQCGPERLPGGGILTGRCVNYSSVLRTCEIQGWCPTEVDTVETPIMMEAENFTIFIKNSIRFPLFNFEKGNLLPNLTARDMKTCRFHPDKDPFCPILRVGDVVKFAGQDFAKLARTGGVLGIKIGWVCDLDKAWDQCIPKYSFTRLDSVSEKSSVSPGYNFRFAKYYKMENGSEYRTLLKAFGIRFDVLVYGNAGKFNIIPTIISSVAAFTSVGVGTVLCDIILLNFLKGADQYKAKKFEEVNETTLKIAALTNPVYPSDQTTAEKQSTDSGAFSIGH
Excerpt: (§1) The human P2X2/3 chimera clone is created as described by Neelands et al, and then cloned into an expression vector as above. Receptors are expressed in cells (e.g., HEK293 or 1321N1 (obtained from the ECACC)) via transient transfection using standard lipid mediated transfection, or by creation of stable transfectants for each receptor. For expression of the P2X2/3 heteromeric receptor, the P2X3 expression vector is stably transfected into a cell line already stably expressing P2X2. P2X2/3 heteromer function is isolated using pharmacological methods. Cell lines are maintained in DMEM+5% Glutamax, the appropriate level of selective antibiotic, and 10% heat inactivated FBS.
(§2) Functional activity of compounds at the P2X receptor is determined by measuring their ability to inhibit agonist-induced calcium influx. Compounds are tested for antagonist activity against the P2X2/3 chimera, the P2X3 homomer, or the P2X2/3 heteromer. At the start of each screening day, the agonist EC50 is determined. Compound % inhibition or IC50s are subsequently determined using a pre-determined agonist concentration (EC50-90 depending on cell line) as a stimulus. The agonists used are αβMeATP, ATP, or other ATP analogs. Compounds may be tested at concentrations ranging from 1 pM to 10 μM.
(§3) To test for antagonist activity, cells expressing the appropriate receptor are seeded onto 96 or 384 well plates 18-24 hours prior to assay. […] Plates are incubated at 37° C. and then equilibrated at room temperature. Antagonism of agonist-induced calcium influx is measured using a fluorescent imaging plate reader (e.g. FLIPR^TETRA, Molecular Devices, Sunnyvale, Calif.). The assay comprises two stages: a pre-treatment phase followed by a treatment phase. Compounds may be tested as follows: For the pre-treatment phase, 50 μL of 3× concentration of test compound in HBSS is added to cells containing 100 μL of dye loading media to achieve a final concentration of 1× test compound. For the treatment phase, at a set interval after pre-treatment (1-30 minutes), 50 μl, of 1× test compound plus 4× agonist solution is added, resulting in a final concentration of 1× compound and 1× agonist. […] Responses are measured as (peak fluorescence after agonist addition) minus (baseline fluorescence prior to treatment). Percent inhibition is calculated as follows: […]
(§4) IC50 values are determined by analyzing dose response data in a 4 parameter logistic fit using GraphPad Prizm.

[2] = biological target: T2, P2X2/3 (Homo sapiens, UniProt P56373+Q9UBL9); assay: Calcium uptake assay (P2X antagonist assay, inhibition of agonist-induced calcium influx), P2X2/3; type: cell-based; conditions: inhibition of agonist-induced calcium influx in cells expressing the receptor
T2 construct: expressed in transfected cells; host or cells: cell line stably expressing P2X2, stably transfected with P2X3 (e.g. HEK293 or 1321N1)
T2 sequence (Q9UBL9 1-471): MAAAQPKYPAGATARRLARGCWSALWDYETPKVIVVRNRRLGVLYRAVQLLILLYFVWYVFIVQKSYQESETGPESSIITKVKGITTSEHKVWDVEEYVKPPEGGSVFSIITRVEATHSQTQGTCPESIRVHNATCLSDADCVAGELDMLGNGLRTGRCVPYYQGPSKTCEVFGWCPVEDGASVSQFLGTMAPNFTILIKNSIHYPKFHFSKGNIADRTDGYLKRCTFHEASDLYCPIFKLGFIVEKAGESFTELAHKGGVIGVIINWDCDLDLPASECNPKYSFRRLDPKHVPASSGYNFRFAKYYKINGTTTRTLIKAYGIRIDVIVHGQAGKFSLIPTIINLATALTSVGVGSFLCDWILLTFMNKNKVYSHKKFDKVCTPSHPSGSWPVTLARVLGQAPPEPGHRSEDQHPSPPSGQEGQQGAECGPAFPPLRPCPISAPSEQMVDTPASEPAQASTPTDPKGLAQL
T2 sequence (P56373 1-397): T1 sequence (P56373 1-397)
Excerpt: as §1, §2, §3, §4

SMILES | IC50 [1] | IC50 [2]
Cc1ccc(N2CCc3ncnc(NCc4ccc(Cl)c(S(C)(=O)=O)c4)c3C2)c(C#N)c1 [Compound 71, 2-[4-(4-Chloro-3-methanesulfonyl-benzylamino)-7,8-dihydro-5H-pyrido[4,3-d]pyrimidin-6-yl]-5-methyl-benzonitrile] | 37 nM | 120 nM
Cc1ccc(N2CCc3ncnc(NCc4ccc5cc[nH]c5c4)c3C2)c(C#N)c1 [Compound 81, 2-(4-((1H-Indol-6-yl)methylamino)-7,8-dihydropyrido[4,3-d]pyrimidin-6(5H)-yl)-5-methylbenzonitrile] | 423 nM | 2160 nM
N#Cc1cc(Cl)ccc1N1CCc2ncnc(NCc3ccn4ccnc4c3)c2C1 [Compound 44, 5-Chloro-2-{4-[(imidazo[1,2-a]pyridin-7-ylmethyl)-amino]-7,8-dihydro-5H-pyrido[4,3-d]pyrimidin-6-yl}-benzonitrile] | 122 nM | 753 nM
Cc1ccc(N2CCc3ncnc(N[C@H](CO)c4ccc(C(F)(F)F)nc4)c3C2)c(C#N)c1 [Compound 46, 2-{4-[(S)-2-Hydroxy-1-(6-trifluoromethyl-pyridin-3-yl)-ethylamino]-7,8-dihydro-5H-pyrido[4,3-d]pyrimidin-6-yl}-5-methyl-benzonitrile] | 21 nM | 71 nM
COc1ccc(CNc2ncnc3c2CN(c2ccc(Br)cc2C#N)CC3)cn1 [Compound 14, 5-Bromo-2-(4-((6-methoxypyridin-3-yl)methylamino)-7,8-dihydropyrido[4,3-d]pyrimidin-6(5H)-yl)benzonitrile] | 78 nM | 325 nM
Cc1ccc(N2CCc3ncnc(NCc4ccccn4)c3C2)c(C#N)c1 [Compound 29, 5-Methyl-2-{4-[(pyridin-2-ylmethyl)-amino]-7,8-dihydro-5H-pyrido[4,3-d]pyrimidin-6-yl}-benzonitrile] | 196 nM | 1670 nM
Cc1ccc(N2CCc3ncnc(NCc4ccc(C)c(F)c4)c3C2)c(C#N)c1 [Compound 48, 2-[4-(3-Fluoro-4-methyl-benzylamino)-7,8-dihydro-5H-pyrido[4,3-d]pyrimidin-6-yl]-5-methyl-benzonitrile] | 89 nM | 124 nM
COc1ccc([C@@H](CC(=O)OC(C)(C)C)Nc2ncnc3c2CN(c2ccc(Cl)cc2C#N)CC3)cn1 [Compound 18, (R)-3-[6-(4-Chloro-2-cyano-phenyl)-5,6,7,8-tetrahydro-pyrido[4,3-d]pyrimidin-4-ylamino]-3-(6-methoxy-pyridin-3-yl)-propionic acid tert-butyl ester] | > 10000 nM | > 10000 nM
N#Cc1cc(Cl)ccc1N1CCc2ncnc(NCc3cccc(-n4cnnc4)c3)c2C1 [Compound 51, 5-Chloro-2-[4-(3-[1,2,4]triazol-4-yl-benzylamino)-7,8-dihydro-5H-pyrido[4,3-d]pyrimidin-6-yl]-benzonitrile] | 284 nM | 1020 nM
Cc1ccc(N2CCc3ncnc(NC(CCO)c4ccc(C(F)(F)F)nc4)c3C2)c(C#N)c1 (centres unmarked) [Compound 25, 2-{4-[3-Hydroxy-1-(6-trifluoromethyl-pyridin-3-yl)-propylamino]-7,8-dihydro-5H-pyrido[4,3-d]pyrimidin-6-yl}-5-methyl-benzonitrile] | 55 nM | 136 nM
N#Cc1cc(C(F)(F)F)ccc1N1CCc2ncnc(NCc3ccc(C(F)(F)F)nc3)c2C1 [Compound 5, 5-Trifluoromethyl-2-{4-[(6-trifluoromethyl-pyridin-3-ylmethyl)-amino]-7,8-dihydro-5H-pyrido[4,3-d]pyrimidin-6-yl}-benzonitrile] | 1840 nM | –
CSc1cc(CNc2ncnc3c2CN(c2ccc(C)cc2C#N)CC3)ccc1C [Compound 49, 5-Methyl-2-[4-(4-methyl-3-methylsulfanyl-benzylamino)-7,8-dihydro-5H-pyrido[4,3-d]pyrimidin-6-yl]-benzonitrile] | 474 nM | 925 nM
N#Cc1cc(Cl)ccc1N1CCc2ncnc(NCc3ccc(C(F)(F)F)cn3)c2C1 [Compound 17, 5-Chloro-2-{4-[(5-trifluoromethyl-pyridin-2-ylmethyl)-amino]-7,8-dihydro-5H-pyrido[4,3-d]pyrimidin-6-yl}-benzonitrile] | 118 nM | 4890 nM
N#Cc1cc(Br)ccc1N1CCc2ncnc(NCc3ccc(C(F)(F)F)nc3)c2C1 [Compound 2, 5-Bromo-2-{4-[(6-trifluoromethyl-pyridin-3-ylmethyl)-amino]-7,8-dihydro-5H-pyrido[4,3-d]pyrimidin-6-yl}-benzonitrile] | 80 nM | –
Cc1ccc(N2CCc3ncnc(N[C@@H](CCO)c4ccc(C(F)(F)F)nc4)c3C2)c(C#N)c1 [Compound 65, 2-{4-[(S)-3-Hydroxy-1-(6-trifluoromethyl-pyridin-3-yl)-propylamino]-7,8-dihydro-5H-pyrido[4,3-d]pyrimidin-6-yl}-5-methyl-benzonitrile] | 806 nM | 5420 nM
N#Cc1cc(Cl)ccc1N1CCc2ncnc(N[C@H](CCO)c3ccc(C(F)(F)F)nc3)c2C1 [Compound 20, 5-Chloro-2-{4-[(R)-3-hydroxy-1-(6-trifluoromethyl-pyridin-3-yl)-propylamino]-7,8-dihydro-5H-pyrido[4,3-d]pyrimidin-6-yl}-benzonitrile] | 90 nM | 903 nM
N#Cc1cc(Cl)ccc1N1CCc2ncnc(N[C@H](CCO)c3ccc(C(F)F)nc3)c2C1 [Compound 62, 5-Chloro-2-{4-[(R)-1-(6-difluoromethyl-pyridin-3-yl)-3-hydroxy-propylamino]-7,8-dihydro-5H-pyrido[4,3-d]pyrimidin-6-yl}-benzonitrile] | 32 nM | 273 nM
Cc1ccc(N2CCc3ncnc(NCc4ccc5ccccc5n4)c3C2)c(C#N)c1 [Compound 80, 5-Methyl-2-(4-(quinolin-2-ylmethylamino)-7,8-dihydropyrido[4,3-d]pyrimidin-6(5H)-yl)benzonitrile] | 156 nM | 263 nM
Cc1ccc(N2CCc3ncnc(NCc4ccc5c(c4)OCO5)c3C2)c(C#N)c1 [Compound 82, 2-(4-(Benzo[d][1,3]dioxol-5-ylmethylamino)-7,8-dihydropyrido[4,3-d]pyrimidin-6(5H)-yl)-5-methylbenzonitrile] | 56 nM | 310 nM
Cc1ccc(CNc2ncnc3c2CN(c2ccc(Cl)cc2C#N)CC3)cc1S(C)(=O)=O [Compound 76, 5-Chloro-2-[4-(3-methanesulfonyl-4-methyl-benzylamino)-7,8-dihydro-5H-pyrido[4,3-d]pyrimidin-6-yl]-benzonitrile] | 40 nM | 241 nM
CCc1ccc(CNc2ncnc3c2CN(c2ccc(C)cc2C#N)CC3)cn1 [Compound 33, 2-{4-[(6-Ethyl-pyridin-3-ylmethyl)-amino]-7,8-dihydro-5H-pyrido[4,3-d]pyrimidin-6-yl}-5-methyl-benzonitrile] | 38 nM | 127 nM
N#Cc1cc(C2CC2)ccc1N1CCc2ncnc(NCc3ccc(C(F)(F)F)nc3)c2C1 [Compound 3, 5-Cyclopropyl-2-{4-[(6-trifluoromethyl-pyridin-3-ylmethyl)-amino]-7,8-dihydro-5H-pyrido[4,3-d]pyrimidin-6-yl}-benzonitrile] | 870 nM | –
